The numbers were not newly measured in US6503927B1, “Amorphous paroxetine composition” (Pentech Pharmaceuticals, Inc., priority 1999, dated 2003), which cites them from elsewhere.

Counter-ions that a name gives are not always drawn.

For the data set the following is noted: reported in U.S. Pat. No. 4,721,723 (Barnes et al.) and U.S. Pat. No. 5,672,612 (Ronsen et al.).

For `Fc1ccc([C@@H]2CCNC[C@H]2COc2ccc3c(c2)OCO3)cc1` [amorphous, paroxetine hydrochloride, paroxetine hydrochloride], the “hygroscopicity of the solid” value is “undesirably hygroscopic”.
